Our source for the IC50 and Activity values is ChEMBL document CHEMBL2385046, “Dihydrooxazines As Inhibitors of BACE-1 or BACE-2” (ACS Med Chem Lett, 2013).

As usually defined, the IC50 is the point on the concentration scale where inhibition reaches its midpoint.

Test [1] concerns the target T1, Beta-secretase 2 (Homo sapiens, UniProt Q9Y5Z0).
T1 sequence (Q9Y5Z0 whole entry): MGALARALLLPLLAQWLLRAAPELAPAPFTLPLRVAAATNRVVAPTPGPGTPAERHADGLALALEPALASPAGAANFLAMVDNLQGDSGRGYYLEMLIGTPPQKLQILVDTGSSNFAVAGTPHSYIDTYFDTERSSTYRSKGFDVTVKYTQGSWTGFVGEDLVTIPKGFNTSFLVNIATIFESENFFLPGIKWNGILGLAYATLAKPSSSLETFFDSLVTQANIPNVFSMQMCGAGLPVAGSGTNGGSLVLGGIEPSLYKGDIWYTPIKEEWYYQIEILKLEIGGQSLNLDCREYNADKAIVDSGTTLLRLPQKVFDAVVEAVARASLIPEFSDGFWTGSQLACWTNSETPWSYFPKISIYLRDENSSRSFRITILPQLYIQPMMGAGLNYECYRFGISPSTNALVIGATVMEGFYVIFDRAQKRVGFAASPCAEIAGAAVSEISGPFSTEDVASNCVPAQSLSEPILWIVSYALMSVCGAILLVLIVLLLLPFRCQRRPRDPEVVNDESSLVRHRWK
The test can be described thus: Inhibition of recombinant human BACE2 extracellular domain expressed in baculovirus using Q-C(HS03)-lle-Asp-Leu-Ala-Val-Leu-Asp-HN-CH2-CH2-Mca as substrate incubated for 1 hr measured every 1 min for 15 mins by fluorescence assay.

Test [2] concerns the target Beta-secretase 1 (Homo sapiens, UniProt P56817). Description: Inhibition of recombinant human BACE1 extracellular domain expressed in baculovirus using Q-C(HS03)-lle-Asp-Leu-Ala-Val-Leu-Asp-HN-CH2-CH2-Mca as substrate incubated for 1 hr measured every 1 min for 15 mins by fluorescence assay.
For test [3], the target named is Beta-secretase (BACE) (Homo sapiens, UniProt Q9Y5Z0+P56817). Description: Inhibition of BACE1/BACE2 (unknown origin) transfected in CHO cells assessed as release of amyloid beta (1 to 40) after 24 hrs by immunoassay. The test is classed as cell-based.
Test [4] deals with Rattus norvegicus. Description: Antialzheimer activity in Sprague-Dawley rat assessed as lowering of amyloid beta level in forebrain at 10 mg/kg, po after 4 hrs relative to vehicle-treated control. The test is classed as functional.
For test [5], the system named is Rattus norvegicus. The test can be described thus: Antialzheimer activity in Sprague-Dawley rat assessed as lowering of amyloid beta level in CSF at 10 mg/kg, po after 4 hrs relative to vehicle-treated control. The test is classed as functional.

Sequence of Beta-secretase 1 (P56817 whole entry, the tested form may be a part): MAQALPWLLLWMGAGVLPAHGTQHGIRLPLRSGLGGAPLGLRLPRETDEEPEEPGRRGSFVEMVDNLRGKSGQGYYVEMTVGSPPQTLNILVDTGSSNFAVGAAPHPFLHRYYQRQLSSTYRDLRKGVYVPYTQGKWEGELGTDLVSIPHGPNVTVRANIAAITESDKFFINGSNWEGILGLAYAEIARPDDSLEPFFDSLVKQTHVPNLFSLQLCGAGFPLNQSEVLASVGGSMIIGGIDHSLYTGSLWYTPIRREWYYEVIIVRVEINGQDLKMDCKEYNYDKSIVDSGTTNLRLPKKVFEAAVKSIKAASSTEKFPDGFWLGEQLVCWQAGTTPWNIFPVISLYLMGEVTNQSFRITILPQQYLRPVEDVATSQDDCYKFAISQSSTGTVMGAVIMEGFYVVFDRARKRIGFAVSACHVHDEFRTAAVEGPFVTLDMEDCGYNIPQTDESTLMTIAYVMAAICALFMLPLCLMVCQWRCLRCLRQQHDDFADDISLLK

In the case of `C[C@]1(c2nc(NC(=O)c3ccc(C#N)cn3)ccc2F)N=C(N)OCC1(F)F`, the results for the IC50 in test [1], in test [2] and in test [3] were 66 nM, 12 nM and 7 nM, respectively.

In the case of `C[C@]1(c2nc(NC(=O)c3ncc(C#N)cc3Cl)ccc2F)N=C(N)OCC1(F)F`, the Activity is given as -67.1% in test [4] and -70.7% in test [5]. For the same compound, the IC50 in test [3] was determined as 8 nM.

Regarding `CC1(C)OC(N)=N[C@](C)(c2nc(NC(=O)c3ncc(C#N)cc3Cl)ccc2F)C1(F)F`, the Activity in test [4] is reported as -20%; in test [5], -35.3%.

Consider `C[C@]1(c2nc(NC(=O)c3ncc(C(F)(F)F)cc3Cl)ccc2F)N=C(N)OCC1(F)F`, for which the Activity is on record as -63.6% in test [4] and -67.9% in test [5].

As for `C[C@]1(c2nc(NC(=O)c3ncc(Cl)cc3Cl)ccc2F)N=C(N)OCC1(F)F`, the IC50 in test [3] stood at 12 nM.

On to `C[C@]1(c2nc(NC(=O)c3ncc(OCC(F)F)nc3N)ccc2F)N=C(N)OCC1(F)F`, for which the IC50 in test [3] amounted to 440 nM.

`C[C@]1(c2nc(NC(=O)c3nn(C(F)F)cc3Cl)ccc2F)N=C(N)OCC1(F)F`: the Activity in test [4] is -46.6%; in test [5] it was -55.2%. Besides, the IC50 in test [3] was determined as 13 nM.
